Laboratory results: PubChem BioAssay (NCI)
Several values for one entry are separate records, joined by “and”; a condition that tells them apart may be missing. Equal values may be shown once.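 Step 1: Grow cells in 96-well plates. Step 2: Expose to compound for 48 hours at 5 concentrations. Step 3: Interpolate endpoints linearly; if unreached, use highest concentration. At the GI50, growth is halved. The concentration for full growth arrest is given as TGI.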

Experiments:
Assay in all cases: DTP human tumour cell line panel, 48 h
EKVX NSCLC = tested on: EKVX NSCLC
RPMI-8226 leukemia = tested on: RPMI-8226 leukemia
SF-268 CNS = tested on: SF-268 CNS
T-47D breast = tested on: T-47D breast
NCI-H460 lung = tested on: NCI-H460 lung
CAKI-1 renal = tested on: CAKI-1 renal
MDA-MB-435 = tested on: MDA-MB-435
U251 CNS = tested on: U251 CNS
OVCAR-8 ovarian = tested on: OVCAR-8 ovarian
OVCAR-5 ovarian = tested on: OVCAR-5 ovarian
KM12 colon = tested on: KM12 colon
HCT-116 colon = tested on: HCT-116 colon
SK-MEL-2 melanoma = tested on: SK-MEL-2 melanoma
CCRF-CEM leukemia = tested on: CCRF-CEM leukemia
ACHN renal = tested on: ACHN renal
SK-MEL-28 melanoma = tested on: SK-MEL-28 melanoma
NCI-H23 lung = tested on: NCI-H23 lung
UACC-257 melanoma = tested on: UACC-257 melanoma
SNB-19 CNS = tested on: SNB-19 CNS
786-0 renal = tested on: 786-0 renal
SW-620 colon = tested on: SW-620 colon
COLO 205 colon = tested on: COLO 205 colon
HCT-15 colon = tested on: HCT-15 colon
MCF7 breast = tested on: MCF7 breast
SF-295 CNS = tested on: SF-295 CNS
SK-OV-3 ovarian = tested on: SK-OV-3 ovarian
A498 renal = tested on: A498 renal
BT-549 breast = tested on: BT-549 breast

O=C(NNc1nc2cc(F)c(F)cc2n2cccc12)c1cccnn1
GI50 (EKVX NSCLC): 255 nM and 190 nM
TGI (EKVX NSCLC): 30000 nM and 16100 nM
GI50 (RPMI-8226 leukemia): 305 nM and 338 nM
TGI (RPMI-8226 leukemia): 1150 nM and 7720 nM
GI50 (SF-268 CNS): 364 nM and 274 nM
TGI (SF-268 CNS): 30000 nM and > 100000 nM
GI50 (T-47D breast): 838 nM and 293 nM
TGI (T-47D breast): 24500 nM and 9750 nM
GI50 (NCI-H460 lung): 134 nM and 81 nM
TGI (NCI-H460 lung): 3650 nM and 1960 nM
GI50 (CAKI-1 renal): 261 nM and 251 nM
TGI (CAKI-1 renal): 30000 nM and 11200 nM
GI50 (MDA-MB-435): 1160 nM and 811 nM
TGI (MDA-MB-435): 30000 nM and 19900 nM
GI50 (U251 CNS): 229 nM and 172 nM
TGI (U251 CNS): 30000 nM and 36100 nM
GI50 (OVCAR-8 ovarian): 322 nM and 269 nM
TGI (OVCAR-8 ovarian): 30000 nM and > 100000 nM
GI50 (OVCAR-5 ovarian): 693 nM and 2310 nM
TGI (OVCAR-5 ovarian): 30000 nM and 32300 nM
GI50 (KM12 colon): 378 nM and 336 nM
TGI (KM12 colon): 30000 nM and 33300 nM
GI50 (HCT-116 colon): 207 nM and 173 nM
TGI (HCT-116 colon): 30000 nM and 11900 nM
GI50 (SK-MEL-2 melanoma): 963 nM and 1490 nM
TGI (SK-MEL-2 melanoma): 30000 nM and 15500 nM
GI50 (CCRF-CEM leukemia): 76.5 nM
TGI (CCRF-CEM leukemia): 1010 nM
GI50 (ACHN renal): 158 nM and 134 nM
TGI (ACHN renal): 8320 nM and 6530 nM
GI50 (SK-MEL-28 melanoma): 504 nM and 515 nM
TGI (SK-MEL-28 melanoma): 30000 nM and 22400 nM
GI50 (NCI-H23 lung): 654 nM
TGI (NCI-H23 lung): 50800 nM
GI50 (UACC-257 melanoma): 802 nM and 364 nM
TGI (UACC-257 melanoma): 2890 nM and 11000 nM
GI50 (SNB-19 CNS): 394 nM and 434 nM
TGI (SNB-19 CNS): 30000 nM and > 100000 nM
GI50 (786-0 renal): 669 nM and 296 nM
TGI (786-0 renal): 30000 nM and 12900 nM
GI50 (SW-620 colon): 231 nM and 354 nM
TGI (SW-620 colon): 30000 nM and 60300 nM
GI50 (COLO 205 colon): 384 nM and 321 nM
TGI (COLO 205 colon): 30000 nM and 19100 nM
GI50 (HCT-15 colon): 123 nM and 46.8 nM
TGI (HCT-15 colon): 30000 nM and 38300 nM
GI50 (MCF7 breast): 408 nM and 304 nM
TGI (MCF7 breast): 4310 nM and 2830 nM
GI50 (SF-295 CNS): 202 nM and 97.5 nM
TGI (SF-295 CNS): 5230 nM and 6170 nM
GI50 (SK-OV-3 ovarian): 300 nM and 326 nM
TGI (SK-OV-3 ovarian): 11400 nM and 17900 nM
GI50 (A498 renal): 614 nM and 382 nM
TGI (A498 renal): 3260 nM and 2450 nM
GI50 (BT-549 breast): 1400 nM and 271 nM
TGI (BT-549 breast): 30000 nM and 24800 nM
